How the values were obtained:
mouse osteoclast = experiment: Osteoclast differentiation inhibition, mouse osteoclast with M-CSF and RANKL (Example 5); type: cell-based; conditions: M-CSF 30 ng/ml, RANKL 200 ng/ml
Procedure: For FIG. 6, the mouse osteoclast (2×10^4/well) was added to 48 well plate; M-CSF (30 ng/ml) and RANKL (200 ng/ml) were added at the same time; and then 10 mM of each of C01, CO2, and G10 that are an osteopontin inhibitor was treated to analysis the inhibition ability for differentiating to an osteoclast.

osteoclast = experiment: Osteoclast differentiation inhibition, myeloplast-derived macrophage with hM-CSF and RANKL, TRAP staining (Example 4); type: cell-based, mice (C57BL/6J); conditions: 10 mM; 30 ng/ml hM-CSF, 100 ng/ml RANKL; 4 days
Procedure: Myeloplasts collected from five-week mice (C57BL/6J) were added to 48-well plate and cultured in a differentiation medium [a-MEM (Invitrogen. co.), 10% (v/v) Fetal bovine serum (FBS), 100 units/ml penicillin, 100 μg/ml streptomycin] including 30 ng/ml of hM-CSF (R&D system Inc.) that is a macrophage differentiator for three days under the conditions of 37° C., 95% (v/v) air, and 5% (v/v) CO2 to be 4×10^4 cell/well so that the macrophase derived from the myeloplast was obtained. In this situation, in addition to the concentration of 30 ng/ml hM-CSF, mouse RANKL that is an osteoclast differentiator was expressed in E. coli; it was purely separated and purified; it was added in the concentration of 100 ng/ml; and then it was continuously cultured under the same conditions to induce the cell differentiation to the osteoclast. After culturing for 4 days, the cell was fixed with 3.7% formaldehyde for 15 minutes at room temperature; washed with distilled water twice; the staining solution made by mixing acetate, Fast Gargnet GBC base, naphtol AS-BI phosphate, […], and tartrate in the ratio as disclosed in the instructions of Acid Phosphatase, Leukocyte (TRAP) Kit™ (Sigma Co.) was added to be […]; and then reacted at 37° C. for 20 minutes to stain the differentiated osteoclast.

mouse skull calvaria = experiment: Mouse Calvaria Model, LPS-induced born destruction; type: in vivo; conditions: Lipopolysaccharide 10 mg/kg to mouse skull; compound 10 mg/kg
Procedure: […] On 5 days, the mice calvaria were extracted; the cross-section of the calvaria was stained with H&E Staining to identify; and then the inhibition degree of the born destruction effect was analyzed using Image-pro Plus 4.5 (Media Cybernetics, Inc.).

SMILES | inhibition ability for differentiating to the osteoclast (mouse osteoclast) | inhibition ability for differentiating to the osteoclast (osteoclast) | effect on inhibiting the born destruction effect due to LPS in vivo (mouse skull calvaria)
O=C(O)C1CSC(c2ccccn2)N1 (stereo not shown) [IPS-02003, 2-Pyridin-2-yl-thiazolidine-4-carboxylic acid] | no inhibition ability | no inhibition ability | 
O=C1C(O)=C(O)C(=O)c2c(O)c(Cl)cc(O)c21 [IPS-02002, 6-Chloro-2,3,5,8-tetrahydroxy-[1,4]naphthoquinon] | excellent inhibition ability | excellent inhibition ability | 
O=C1C(O)=C(O)C(=O)c2c(O)c(Cl)c(Cl)c(O)c21 [IPS-02001, 6,7-Dichloro-2,3,5,8-tetrahydroxy-[1,4]naphthoquinone] | excellent inhibition ability | excellent inhibition ability | has the effect on inhibiting the born destruction effect

From US20120264942A1, “METHOD FOR SCREENING OSTEOPONTIN INHIBITOR AND INHIBITOR OBTAINED FROM THE METHOD” (INNOPHARMASCREEN, INC., priority 2009, published 2012)
